# Test results as given in patent US20070099867A1, “Pharmaceutical agent containing hyaluronan as an active ingredient” (GLYCOSCIENCE LABORATORIES, INC., priority 2005, published 2007).
# Key:
# [1] = tested on: K562 (human erythroleukemia cell); experiment: Cell viability by Rhodamine 123 staining after heat treatment; format: cell-based; details: K562, 20 minutes at 43° C. then 60 minutes at 37° C., HA4 100 ng/ml
# Procedure: In this example, effect of the inventive pharmaceutical agent on cell viability was measured using Rhodamine 123. […] Accordingly, the degree of the staining with Rhodamine 123 serves as an index of the mitochondrial activity, thus the index of the cellular activity (see, non-patent reference 2).
# In this example, a K562 (referred to as human erythroleukemia cell or human erythroblastoid leukemia cell) was used. The K562 was purchased from RIKEN, Japan.
# In this example relating to preparation of test substance, HA4 was prepared at 100 ng/ml. Specifically, HA4 was prepared by the method of Tawada et al. (Tawada A, Masa T, Oonuki Y, Watanabe A, Matsuzaki Y, Asari A. Large-scale preparation, purification and characterization of hyaluronan oligosaccharides from 4-mers to 52-mers. Glycobiology, 2002; 12(7): 421-6) and the concentration was adjusted using a physiological saline.
# First, the K562 was incubated under the condition described below. The culture medium for the K562 was an RPMI-1640 medium. In this example, the K562 was incubated in Groups 1 to 3 shown below. Each group was cultured under the condition described below. […]
# The K562 after washing was inoculated at 1×10^4 cells/ml in a 96-well plate and a photograph was taken using a fluorescent microscope (Nikon). The image was sent to an Adobe Photoshop (Adobe Systems) where the fluorescent intensity of a cell was measured.
# [2] = tested on: U937 cell (human monocyte line); experiment: Cytokine production by LPS-stimulated U937 cells, Human Cytokine Antibody array; format: cell-based; details: U937, LPS 100 ng/ml, HA4 100 ng/ml, 24 hours
# Procedure: (§1) An U937 cell was disseminated in a 2 ml aliquot in a 6-well microplate at 5×10^5 cell/ml, supplemented with an LPS at a final concentration of 100 or 1000 ng/ml, and then incubated for 24 hours with 5% CO2 at 37° C. in the presence or absence of HA4 (100 ng/ml). The culture supernatant was centrifuged at 3000 rpm for 5 minutes to obtain a test substance. A 1 ml aliquot of the recovered supernatant was subjected to Human Cytokine Antibody array (Raybio) using an ELISA (ENDOGEN) to detect the production of various cytokines.
# (§2) More specifically, the following procedure was employed to measure the production of the cytokines by the cytokine array and the ELISA.
# A 2 ml aliquot of a blocking buffer was added to a membrane blotted with an antibody, which was then shaken for 30 minutes. The blocking buffer was removed, and a 1 ml aliquot of the culture supernatant was added and shaken at room temperature for 2 hours, washed 5 times, and then admixed with a primary antibody solution. After agitating at room temperature for 1.5 hours followed by washing 5 times, a secondary antibody solution was added and agitated overnight at 4° C. After washing 5 times, a chemiluminescence was allowed to develop and photographed by a Polaroid. The photograph was scanned to obtain its digital data which were subjected to an Image J to measure the luminescent intensity. The ratio based on the luminescent intensity of an internal standard placed in 6 positions in the membrane was calculated. In addition, a relative level (%) based on the expression level in a non-treatment group (NT) being 100 was calculated.
# rat spinal injury model = experiment: Rat spinal injury model, immunostaining of spinal tissue with anti-Hsp72 and anti-synaptophysin antibody; format: in vivo, Wistar rat; details: Group 3: continuous intrathecal HA4 6 μg/day, 7 days; compared with Sham-operation (Group 1) and saline (Group 2)
# Procedure: In this example, a rat spinal injury model was treated continuously with a physiological saline (saline group) or a physiological saline containing HA4 (HA4 group) followed by sampling the spinal tissue, which was then immunostained with an anti-Hsp72 antibody and/or an anti-synaptophysin antibody. Also in this example, a rat which had been subjected to a Sham-operation was handled as an intact control (Sham-operation group).
# The rat spinal injury model was prepared by subjecting a Wistar rat (11-week old when receiving, 12-week old when using) to the procedure described below. First, a cervical to lumbar region of a test rat was clipped using an electric clipper under an anesthesia with pentobarbital and then the clipped region was cleaned with a 70% alcohol and ISOGIN. Then, the dorsal skin was excised to expose the 5th to 10th thoracic vertebrae and then the 6th thoracic vertebra was subjected to a semi-laminectomy. Then a dura was incised slightly and then under an anesthesia with xylocaine, the tip (fabricated to be 0.3 mm) of a microforceps was introduced over the width of the spinal posterior funiculus (about 1.5 mm) until the tip of the microforceps was brought into contact with the abdominal side vertebral body, and the microforceps were moved for 10 seconds to effect a debridement of the spinal cord (hereinafter referred to as a primary injury site). […]
# [3] = tested on: cerebrospinal tissue of multiple sclerosis model (EAE); experiment: DNA array analysis of cerebrospinal tissue of the EAE model; format: in vivo, Lewis rats; details: EAE rats
# [4] = tested on: experimental autoimmune encephalomyelitis (EAE) multiple sclerosis model animals; experiment: Experimental autoimmune encephalomyelitis (EAE) multiple sclerosis model, EAE neural symptom evaluation; format: in vivo, Lewis rats; details: for EAE clinical score at the EAE climax: Day 13 after antigen inoculation, saline 2.2±0.41; for diseased period: saline 6.5±0.55 days
# K562 [5] = experiment: DNA chip expression analysis of cytokine-associated and chemokine-associated genes (Example 4); format: cell-based, human; details: K562, 42° C. 20 minutes then 37° C. 30 minutes, HA4 10 ng/ml
# Procedure: In this example, the cytokine-associated gene and chemokine-associated gene expression inhibition of a pharmaceutical agent according to the invention was assessed using a DNA chip capable of monitoring a gene expression promotion/inhibition.
# Experimental method: First, the K562 was incubated in Groups 1 and 2 in the RPMI medium described above. The both groups were incubated at 42° C. for 20 minutes followed by 37° C. for 30 minutes. The medium of Group 2 was supplemented with HA4 (10 ng/ml).
# (§3) After the incubation, the medium was removed by centrifugation at 1000 rpm. The obtained cells were stored in a deep freezer at −60° C. From the cells thus stored, RNA was extracted according to a standard method. The extracted RNA was subjected to the DNA chip to analyze the gene expression. The DNA chip gene expression analysis was subtracted to DNA CHIP Research Inc. Specifically, the trade name: AceGene Human Oligo Chip 30K 1 Chip Version manufactured by DNA CHIP Research Inc. was employed.
# [6] = tested on: U937 cell (human monocyte line); experiment: IL-6 production by LPS-stimulated U937 cells, ELISA; format: cell-based; details: U937, LPS 100 ng/ml, HA4 100 ng/ml, 24 hours
# Procedure: as §1, §2
# To a microplate, 50 μl of a biotinylated antibody solution and 50 μl of the culture supernatant were added, and allowed to stand at room temperature for 2 hours. After washing with a washing buffer three times, 100 μl of a streptoavidin-HRP solution was added, allowed to stand at room temperature for 30 minutes, and washed with the washing buffer three times. A TMB was added, allowed to stand for at room temperature 30 minutes, and then a quencher was added to stop the reaction and the absorbance at 450 nm was measured (reference: 562 nm). The IL-6 concentration (pg/ml) was calculated based on the standard solutions measured in parallel.
# K562 [7] = experiment: DNA chip gene expression analysis of cell viability genes (Example 3); format: cell-based, human; details: K562, 42° C. 20 minutes then 37° C. 30 minutes, HA4 10 ng/ml
# Procedure: In this example, the cell viability enhancement of a pharmaceutical agent according to the invention was assessed using a DNA chip capable of monitoring a gene expression promotion/inhibition.
# First, the K562 was incubated in Groups 1 and 2 in the […] described above. The both groups were incubated at 42° C. for 20 minutes followed by 37° C. for 30 minutes. The medium of Group 2 was supplemented with HA4 (10 ng/ml).
# as §3, with “analyze” for “analyze the”, “expressions.” for “expression.”
# [8] = intrathecal continuous 6 μg/day from antigen inoculation, Day 14, pooled cerebrospinal tissue
# [9] = intraspinal single administration after onset of disease, 60 μg
smiles,measurement,setting,value
"CC(=O)N[C@H]1[C@H](O[C@H]2[C@H](O)[C@@H](O)[C@H](O[C@H]3[C@H](O)[C@@H](CO)OC(O)[C@@H]3NC(C)=O)O[C@@H]2C(=O)O)O[C@H](CO)[C@@H](O)[C@@H]1O[C@@H]1O[C@H](C(=O)O)[C@@H](O)[C@H](O)[C@H]1O (some centres unmarked) [HA4, tetrasaccharide hyaluronan]","Rhodamine 123 staining performance (fluorescent intensity, mitochondrial activity)",[1],inhibited such a reduction
same,production of IL-1α (cytokine array),[2],reduction
same,production of IL-1β (cytokine array),[2],reduction
same,production of IL-6 (cytokine array),[2],reduction
same,production of TGF-β (cytokine array),[2],reduction
same,production of TNF-α (cytokine array),[2],reduction
same,production of TNF-β (cytokine array),[2],reduction
same,Hsp72 immunostaining at primary and secondary injury sites,rat spinal injury model,a further intense staining
same,synaptophysin immunostaining at primary and secondary injury sites,rat spinal injury model,an expression close to that observed in Group 1
same,IL-6 mRNA expression in cerebrospinal tissue,"[3]; HA4 administered intrathecally after antigen inoculation, DNA array",increased
same,"Expression level ratio (HA/physiological saline), Decoy TRAIL receptor without death domain",[3]; [8],2.0
same,"Expression level ratio (HA/physiological saline), Fibroblast growth factor receptor substrate 2",[3]; [8],2.3
same,"Expression level ratio (HA/physiological saline), Transthyretin",[3]; [8],0.38
same,EAE clinical score at the EAE climax,"[4]; intraspinal continuous administration after onset of disease, 6 μg/day, 11 days (therapeutic)",1.5±1.0
same,EAE clinical score at the EAE climax,"[4]; intraspinal continuous administration immediately after inoculation, 6 μg/day, 22 days (prophylactic), mean ± SD",0.2±0.41
same,EAE clinical score at the EAE climax,[4]; [9],1.8±0.5
same,diseased period,"[4]; intraspinal continuous administration after onset of disease, 6 μg/day, 11 days",4.3 ± 1.5 days
same,cases developing the disease,"[4]; intraspinal continuous administration immediately after inoculation, 6 μg/day, 22 days",⅙
same,diseased period,[4]; [9],5.0 ± 1.5 days
same,"HA4(+)/HA4(−) ratio, CCL28 gene expression",K562 [5],0.32
same,"HA4(+)/HA4(−) ratio, IFN-γ gene expression",K562 [5],0.11
same,"HA4(+)/HA4(−) ratio, IFN-ω1 gene expression",K562 [5],0.5
same,"HA4(+)/HA4(−) ratio, IL-1β gene expression",K562 [5],0.36
same,"HA4(+)/HA4(−) ratio, IL-5 gene expression",K562 [5],0.28
same,"HA4(+)/HA4(−) ratio, IL-17b gene expression",K562 [5],0.31
same,"HA4(+)/HA4(−) ratio, IL-18RAP gene expression",K562 [5],0.32
same,"HA4(+)/HA4(−) ratio, Mig(CXCL9) gene expression",K562 [5],0.11
same,production of IL-6 (ELISA),[6],reduction
same,"HAA+/− ratio, Caspase 2 gene expression",K562 [7]; apoptosis-related,0.27
same,"HAA+/− ratio, Granzyme H gene expression",K562 [7]; apoptosis-related,0.38
same,"HAA+/− ratio, STK17b (DARK2) gene expression",K562 [7]; apoptosis-related,0.09
same,"HAA+/− ratio, pawr (Par-4) gene expression",K562 [7]; apoptosis-related,0.45
same,"HAA+/− ratio, dnaj (hsp40) homolog gene expression",K562 [7]; heat shock protein-related,2.62
same,"HAA+/− ratio, DNAJ2 gene expression",K562 [7]; transcription control-related,0.34
same,"HAA+/− ratio, TAF9L gene expression",K562 [7]; transcription control-related,0.43
